How the values were obtained:
Type in all cases: cell-based
[1] = test system: heterotrophic microbial biofilm; experiment: Biofilm eradication in PBR (photobioreactor), released CFU's
Method: In order to determine the anti-biofilm effect of PTSO, PTS and DPD (dipropyl disulfide), a biofilm was grown under controlled conditions in a glass tube reactor, the PBR. A photobioreactor was used as model system because biofilm formation was clearly visible in the glass tubes. After a mature biofilm was formed, increasing levels of pure PTSO, PTS or DPD were added and the biofilm was removed by titration of pure PTSO, PTS or DPD and the dosages were determined that the biofilm was eradicated. Hereafter, the microbial composition was determined of the biofilm by deep sequencing.
Heterotrophic microbial biofilm: a biofilm was cultivated in a 26.5-liter glass photobioreactor (PBR) with a tube length of 37-meter incl. bends (the GemTube RD-25 Glass of LGEM). The PBR was filled with 22 liters of not sterilized medium (fable 1).
The medium further contained 1 g/l glucose. Inoculation took place by the adding 500 ml ditch water from the Zuidpolder near Delfgauw. Air was pumped in with a rate of 1.0 liter/min: at this setting the medium circulation through the PBR in the medium was as low as possible but there was a stable hold-up to realize medium circulation in the PBR. The PBR was covered with a dark plastic screen to prevent exposure to the light. Incubation took place at 12-18° C. and pH was controlled 5 times per week to 5.2-5.7, once per 1.5 day. After a total dosage of 5 g/l glucose, (after 1 week) a slimy layer (biofilm) was formed that covers the whole inner surface of the glass tube. The medium was replaced by fresh medium without glucose when the biofilm was formed.
Pure PTSO and PTS were obtained as is indicated in example 1 and stable solutions were prepared in water by sonication of 1000× diluted mixtures. DPD (dipropyl disulfide >98% pure) was supplied by Sigma. After each addition step the biofilm culture was incubated for 24 hours to observe the stability of the biofilm.
The numbers of aerobic, anaerobic/micro-aerophilic and fungal CFU's in the biofilm and supernatant were determined according to standard operating procedures as follows: for aerobic colony forming units per ml (CFU/ml) see https://www.iso.org/standard/53728.html; for the determination of anaerobic CFU's/ml see https://www.thermofisher.com/order/catalog/product/AN0025A#HAN0025A (the plates are incubated in an oxygen-free container) and with respect to the numbers of colony forming unites for fungi see http://edgeanalytical.com/wp-content/uploads/Food_AOAC-997.02.pdf (see Table 2).
Another sample of the biofilm was drawn and a part was stored at minus 80 degrees as inoculum material for further studies. The other part of the biofilm was dissolved by gentle sonification and used to determine the aerobic, anaerobic and fungal numbers of colony forming units as described above. Hereafter it was calculated whether the numbers of colony forming microorganisms in the medium corresponded with the number of microorganisms in the biofilm prior to the treatment. In this way it was calculated whether the microorganisms were killed by the treatments, or that the bacteria remained alive and that only the biofilm was solubilized.
In order to investigate whether PTSO has a destabilizing effect of the biofilm or simply kills the microorganisms, samples were drawn from the biofilm before the treatments and samples of the liquid medium were drawn before and after treatment and were inoculated as described above to determine the number of colony forming units. Hereafter it was calculated whether the numbers of colony forming microorganisms in the medium corresponded with the number of microorganisms in the biofilm prior to the treatment. In this way it was calculated whether the microorganisms are killed by the treatments, or that the bacteria remained alive and that only the biofilm was solubilized (fable 6).

[2] = test system: Staphylococcus aureus strains; experiment: MBIC 90 (minimum biofilm inhibitory concentration)
Source text: (§1) In this example the following bacterial strains were used: Staphyllococcus aureus ATCC 25923 obtained from the ATCC collection; Staphyllococcus aureus 074 was kindly provided by prof. Fink, Faculty of Veterinary Medicine, Utrecht University, the Netherlands, described as a clinical isolate from cows with mastitis. Information for the strain is further given in: Melchior, M. B., Fink-Gremmels, J., & Gaastra, W. (2006). Comparative Assessment of the Antimicrobial Susceptibility of Staphylococcus aureus Isolates from Bovine Mastitis in Biofilm Versus Planktonic Culture. Journal of Veterinary Medicine Series B, 53(7), 326-332; Staphyllococcus aureus ATCC 15564 obtained from the ATCC collection and Streptococcus uberis clinical isolate from a cow with mastitis, part from the collection of Department of Veterinary Microbiology, Infectious and Parasitic Diseases, Trakia University, Bulgary.
(§2) Minimum Biofilm Inhibitory Concentration (MBIC) and Microtiter Biofilm Eradication concentration (MBEC) are defined and measured as indicated in table 7.
(§3) Applying the methods as summarised in table 7, the above-mentioned bacteria were tested with PTSO/PTS enriched plant extract, pure PTSO, and pure PTS as described in example 1 and DPD as described in example 2.

Streptococcus uberis [3] = experiment: MBIC 90 (minimum biofilm inhibitory concentration); conditions: Str. uberis clinical isolate
Source text: as §1, §2, §3

[4] = test system: Staphylococcus aureus strains; experiment: MBEC (biofilm eradication)
Source text: as §1, §2, §3

Streptococcus uberis [5] = experiment: MBEC (biofilm eradication); conditions: Str. uberis clinical isolate
Source text: as §1, §2, §3

[6] = PTSO cumulative dosage 0.05 ul/l culture (dose 0.05), day 2
[7] = PTSO cumulative dosage 0.15 ul/l culture (dose 0.1), day 6
[8] = PTSO cumulative dosage 0.65 ul/l culture (dose 0.5), day 8
[9] = PTSO cumulative dosage 1.65 ul/l culture (dose 1.0), day 13
[10] = PTSO cumulative dosage 3.65 ul/l culture (dose 2.0), day 15
[11] = after 208 mg pure DPD/liter culture
[12] = total dose DPD (cumulative) 1 ul/l (dose 0.50)
[13] = total dose DPD (cumulative) 2 ul/l (dose 1.00)
[14] = total dose DPD (cumulative) 7 ul/l (dose 5.00)
[15] = total dose DPD (cumulative) 17 ul/l (dose 10.00)
[16] = total dose DPD (cumulative) 67 ul/l (dose 50.00)
[17] = total dose DPD (cumulative) 117 ul/l (dose 50.00)
[18] = total dose DPD (cumulative) 167 ul/l (dose 50.00)
[19] = total dose DPD (cumulative) 217 ul/l (dose 50.00)
[20] = total dose DPD (cumulative) 267 ul/l (dose 50.00)
[21] = total dose DPD (cumulative) 317 ul/l (dose 50.00)
[22] = total dose DPD (cumulative) 367 ul/l (dose 50.00)
[23] = total dose DPD (cumulative) 417 ul/l (dose 50.00)
[24] = total dose DPD (cumulative) 467 ul/l (dose 50.00)
[25] = total dose DPD (cumulative) 517 ul/l (dose 50.00)

CCCSS(=O)(=O)CCC (single isomer, unassigned) [PTSO, propyl-propane thiosulfonate]
Aerobic CFU's after 24 hours [1, 6]: 2,033 ×1000 | Anaerobic CFU's after 24 hour [1, 6]: 383 ×1000 | Fungal CFU's after 24 hours [1, 6]: 150 ×1000 | Aerobic CFU's after 24 hours [1, 7]: 3,367 ×1000 | Anaerobic CFU's after 24 hour [1, 7]: 750 ×1000 | Fungal CFU's after 24 hours [1, 7]: 150 ×1000 | Aerobic CFU's after 24 hours [1, 8]: 6,267 ×1000 | Anaerobic CFU's after 24 hour [1, 8]: 1,127 ×1000 | Fungal CFU's after 24 hours [1, 8]: 517 ×1000 | Aerobic CFU's after 24 hours [1, 9]: 17,333 ×1000 | Anaerobic CFU's after 24 hour [1, 9]: 4,400 ×1000 | Fungal CFU's after 24 hours [1, 9]: 20,333 ×1000 | Aerobic CFU's after 24 hours [1, 10]: 5,867 ×1000 | Anaerobic CFU's after 24 hour [1, 10]: 2,933 ×1000 | Fungal CFU's after 24 hours [1, 10]: 1,567 ×1000 | Total (released from biofilm) colony forming units/ml, In culture supernatant ([1]; after 0.9 mg pure PTSO/liter culture): 42,000 units/ml (×1000) | Total colony forming units/ml, In biofilm ([1]; after 0.9 mg pure PTSO/liter culture, 0* means biofilm had disappeared): 0* units/ml (×1000) | % volume biofilm in relation to culture volume ([1]; after 0.9 mg pure PTSO/liter culture, before start treatment 18): 0% | total dosage at which the biofilm became significantly thinner ([1]; mature biofilm in PBR, visual observation): 0.65 ul/l | total dosage at which disintegration / release of the biofilm becomes visible ([1]; mature biofilm in glass tube PBR, visual observation): 0.05 ul/l | MBIC 90 ([2]; St. aureus 074): 128 µg/mL | MBIC 90 ([2]; St. aureus ATCC 15564): 128 µg/mL | MBIC 90 ([2]; St. aureus ATCC 25923): 128 µg/mL | MBIC 90 (Streptococcus uberis [3]): 128 µg/mL | MBEC (biofilm eradication) ([4]; St. aureus 074): 256 µg/mL | MBEC (biofilm eradication) ([4]; St. aureus ATCC 15564): 256 µg/mL | MBEC (biofilm eradication) ([4]; St. aureus ATCC 25923): 512 µg/mL | MBEC (biofilm eradication) (Streptococcus uberis [5]): 512 µg/mL

CCCSSCCC [DPD, dipropyl disulfide]
state of the biofilm at the highest dosages (visual) ([1]; PBR, highest dosage(s) added): did not remove the remainder of the thin biofilm | Total (released from biofilm) colony forming units/ml, In culture supernatant [1, 11]: 3,403 units/ml (×1000) | Total colony forming units/ml, In biofilm [1, 11]: 0 units/ml (×1000) | % volume biofilm in relation to culture volume ([1]; after 208 mg pure DPD/liter culture, before start treatment 7): 0% | total addition at which the biofilm started to release from the glass ([1]; after dose 8, visual observation): 160 mg pure DPD/liter | Aerobic CFU's after 24 hours [1, 12]: 400000 ×1000 | Anaerobic CFU's after 24 hour [1, 12]: 45333 ×1000 | Fungal CFU's after 24 hours [1, 12]: 33333 ×1000 | Aerobic CFU's after 24 hours [1, 13]: 440000 ×1000 | Anaerobic CFU's after 24 hour [1, 13]: 43333 ×1000 | Fungal CFU's after 24 hours [1, 13]: 29000 ×1000 | Aerobic CFU's after 24 hours [1, 14]: 390000 ×1000 | Anaerobic CFU's after 24 hour [1, 14]: 43333 ×1000 | Fungal CFU's after 24 hours [1, 14]: 35000 ×1000 | Aerobic CFU's after 24 hours [1, 15]: 403333 ×1000 | Anaerobic CFU's after 24 hour [1, 15]: 39333 ×1000 | Fungal CFU's after 24 hours [1, 15]: 25333 ×1000 | Aerobic CFU's after 24 hours [1, 16]: 376667 ×1000 | Anaerobic CFU's after 24 hour [1, 16]: 40333 ×1000 | Fungal CFU's after 24 hours [1, 16]: 24000 ×1000 | Aerobic CFU's after 24 hours [1, 17]: 426667 ×1000 | Anaerobic CFU's after 24 hour [1, 17]: 37667 ×1000 | Fungal CFU's after 24 hours [1, 17]: 22333 ×1000 | Aerobic CFU's after 24 hours [1, 18]: 563333 ×1000 | Anaerobic CFU's after 24 hour [1, 18]: 43000 ×1000 | Fungal CFU's after 24 hours [1, 18]: 18333 ×1000 | Aerobic CFU's after 24 hours [1, 19]: 1766667 ×1000 | Anaerobic CFU's after 24 hour [1, 19]: 267000 ×1000 | Fungal CFU's after 24 hours [1, 19]: 18667 ×1000 | Aerobic CFU's after 24 hours [1, 20]: 1413333 ×1000 | Anaerobic CFU's after 24 hour [1, 20]: 340000 ×1000 | Fungal CFU's after 24 hours [1, 20]: 17000 ×1000 | Aerobic CFU's after 24 hours [1, 21]: 936667 ×1000 | Anaerobic CFU's after 24 hour [1, 21]: 100000 ×1000 | Fungal CFU's after 24 hours [1, 21]: 223333 ×1000 | Aerobic CFU's after 24 hours [1, 22]: 163333 ×1000 | Anaerobic CFU's after 24 hour [1, 22]: 35667 ×1000 | Fungal CFU's after 24 hours [1, 22]: 273333 ×1000 | Aerobic CFU's after 24 hours [1, 23]: 107333 ×1000 | Anaerobic CFU's after 24 hour [1, 23]: 19333 ×1000 | Fungal CFU's after 24 hours [1, 23]: 24333 ×1000 | Aerobic CFU's after 24 hours [1, 24]: 103333 ×1000 | Anaerobic CFU's after 24 hour [1, 24]: 9333 ×1000 | Fungal CFU's after 24 hours [1, 24]: 12667 ×1000 | Aerobic CFU's after 24 hours [1, 25]: 98333 ×1000 | Anaerobic CFU's after 24 hour [1, 25]: 5467 ×1000 | Fungal CFU's after 24 hours [1, 25]: 8000 ×1000 | total dosage up to which biofilm release continued ([1]; visual observation): 317 ul pure DPD/liter | MBIC 90 ([2]; St. aureus 074): >1024 µg/mL | MBIC 90 ([2]; St. aureus ATCC 15564): >1024 µg/mL | MBIC 90 ([2]; St. aureus ATCC 25923): >1024 µg/mL | MBIC 90 (Streptococcus uberis [3]): >1024 µg/mL | MBEC (biofilm eradication) ([4]; St. aureus 074): 1024 µg/mL | MBEC (biofilm eradication) ([4]; St. aureus ATCC 15564): >1024 µg/mL | MBEC (biofilm eradication) ([4]; St. aureus ATCC 25923): >1024 µg/mL | MBEC (biofilm eradication) (Streptococcus uberis [5]): >1024 µg/mL

Source: patent US20230000811A1, “COMPOSITIONS FOR DISRUPTING BIOFILM FORMATION AND FOR TREATING BIOFILM-RELATED DISORDERS” (AHV International B.V., priority 2020, published 2023)
